Values quoted from earlier work, collected in patent publication US10773080B2, “External trigeminal nerve stimulation for the acute non-invasive treatment of migraine attacks” (Cefaly Technology Sprl, priority 2017, dated 2020).

Columns and labels:
[1] = system: migraine; settings: literature data; for Pain freedom at 2 h: percentage of patients
[2] = system: migraine; settings: in vivo

## C[C@@H]1[C@H](c2ccccc2)C[C@H](NC(=O)c2cnc3c(c2)C[C@@]2(C3)C(=O)Nc3ncccc32)C(=O)N1CC(F)(F)F [[F], Ubrogepant]
[1]; irrespective of MBS
  Nausea freedom at 2 h: 70.6%
  Phonophobia freedom at 2 h: 60.8%
  Photophobia freedom at 2 h: 54.9%
[1]
  At least one treatment-emergent adverse effect: 29.4%
  Pain relief at 2 h: 58.8%
  Sustained pain freedom at 24 h: 21.6%
  Pain freedom at 2 h: 25.5%

## CN1CCC(C(=O)c2cccc(NC(=O)c3c(F)cc(F)cc3F)n2)CC1 [[B], Lasmiditan]
[1]; irrespective of MBS
  Nausea freedom at 2 h: ~26%
  Phonophobia freedom at 2 h: ~30%
  Photophobia freedom at 2 h: ~38%
  Vomiting freedom at 2 h: ~5%
[1]
  At least one treatment-emergent adverse effect: 84%
  Pain relief at 2 h: 65%
  Use of rescue medication between 2 h and 24 h: 42%
  Pain freedom at 2 h: 28%

## O=C(O)Cc1ccccc1Nc1c(Cl)cccc1Cl [diclofenac]
[2]
  Mean pain score reductions at two hours: 50.5%
  Reduction in mean pain VAS scores at one hour: 26.8%

## CNS(=O)(=O)Cc1ccc2[nH]cc(CCN(C)C)c2c1 [sumatriptan]
[2]
  Mean pain score reductions at two hours: 40.0%
  Reduction in mean pain VAS scores at one hour: 17.1%
